Results from patent US9845310B2 (priority 2015, dated 2017).

What follows are molecules tested against APJ (Homo sapiens (Human), UniProt P35414) (assay: [35S]GTPγS binding assay on membranes from CHO cells stably expressing human APJ receptor). Conditions: Activity hAPJ SPA EC50 IP (μM).
Sequence of APJ (P35414 whole entry): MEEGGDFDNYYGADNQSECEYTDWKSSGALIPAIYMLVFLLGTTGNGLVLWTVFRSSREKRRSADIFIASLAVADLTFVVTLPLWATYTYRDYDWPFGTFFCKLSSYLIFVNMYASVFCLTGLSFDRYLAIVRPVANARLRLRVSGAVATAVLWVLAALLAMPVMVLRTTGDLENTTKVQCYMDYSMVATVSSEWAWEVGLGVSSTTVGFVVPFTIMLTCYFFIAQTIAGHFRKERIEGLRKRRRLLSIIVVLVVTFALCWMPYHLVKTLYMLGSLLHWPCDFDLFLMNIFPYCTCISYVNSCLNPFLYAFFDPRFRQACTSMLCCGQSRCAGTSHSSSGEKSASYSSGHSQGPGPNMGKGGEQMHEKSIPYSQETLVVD
Format: biochemical
Experimental: A GTPγS binding assay was performed on membranes prepared from CHO cells stably expressing human APJ receptor. The optimum experimental conditions for the concentrations of GDP, MgCl2, and NaCl in the assay buffer were initially determined. The assay was performed in assay buffer [20 mM HEPES, pH 7.5, 5 mM MgCl2, and 0.1% (w/v) BSA with 200 mM NaCl, 3 M GDP] and membranes expressing human APJ receptor/well along with WGA PS beads. The reaction was initiated by addition of 0.2 nM [^35S]GTPγS (Perkin Elmer Life and Analytical Sciences, Waltham USA) in the absence or presence of various ligands and incubated at RT for 90 min. Nonspecific binding was determined in the presence of 100 M GTPγS and was always less than 0.2% of total binding.
In the case of COc1cccc(OC)c1-n1c(NS(=O)(=O)[C@@H](C)[C@H](OC)c2ncnn2C)nnc1-c1cncc(C)c1 (single isomer, unassigned) [Example 781.0, (1R,2S)-N-(4-(2,6-dimethoxyphenyl)-5-(5-methyl-3-pyridinyl)-4H-1,2,4-triazol-3-yl)-1-methoxy-1-(1-methyl-1H-1,2,4-triazol-5-yl)-2-propanesulfonamide or (1S,2R)-N-(4-(2,6-dimethoxyphenyl)-5-(5-methyl-3-pyridinyl)-4H-1,2,4-triazol-3-yl)-1-methoxy-1-(1-methyl-1H-1,2,4-triazol-5-yl)-2-propanesulfonamide], the EC50 is reported as 0.59 µM.
COc1cccc(-c2nnc(NS(=O)(=O)[C@H](C)[C@@H](OC(C)C)c3ncc(C)cn3)n2-c2c(OC)cccc2OC)n1 (single isomer, unassigned) [Example 97.0] showed an EC50 of 0.002 µM.
In the case of COc1cccc(-c2nnc(NS(=O)(=O)[C@@H](C)[C@H](C)c3ncc(F)cn3)n2-c2cn(C)c3ccccc23)n1 (racemic) [Example 451.0, (2S,3R)-3-(5-fluoro-2-pyrimidinyl)-N-(5-(6-methoxy-2-pyridinyl)-4-(1-methyl-1H-indol-3-yl)-4H-1,2,4-triazol-3-yl)-2-butanesulfonamide and (2R,3S)-3-(5-fluoro-2-pyrimidinyl)-N-(5-(6-methoxy-2-pyridinyl)-4-(1-methyl-1H-indol-3-yl)-4H-1,2,4-triazol-3-yl)-2-butanesulfonamide], the EC50 is reported as 0.045 µM.
COc1cccc(-c2nnc(NS(=O)(=O)[C@H](C)[C@@H](O)c3cc(C)n(C)n3)n2-c2c(OC)cccc2OC)n1 (racemic) [Example 260.0, (1S,2R)-N-(4-(2,6-dimethoxyphenyl)-5-(6-methoxypyridin-2-yl)-4H-1,2,4-triazol-3-yl)-1-(1,5-dimethyl-1H-pyrazol-3-yl)-1-hydroxypropane-2-sulfonamide and (1R,2S)-N-(4-(2,6-dimethoxyphenyl)-5-(6-methoxypyridin-2-yl)-4H-1,2,4-triazol-3-yl)-1-(1,5-dimethyl-1H-pyrazol-3-yl)-1-hydroxypropane-2-sulfonamide] showed an EC50 of 0.0024 µM.
COc1cccc(-c2nnc(NS(=O)(=O)[C@@H](C)[C@H](OC(C)C)c3ncc(C)cn3)n2-c2c(OC)cccc2OC)n1 (single isomer, unassigned) [Example 96.0] gave an EC50 of 0.00026 µM.
With COc1cccc(-c2nnc(NS(=O)(=O)[C@H](C)[C@@H](O)C3CC3)n2-c2c(OC)cccc2OC)n1 (mixture of isomers) [Example 438.0] the EC50 was 0.052 µM.
With COc1cccc(-c2nnc(NS(=O)(=O)[C@@H](C)[C@H](O)c3ccc(F)cc3S(C)(=O)=O)n2-c2c(OC)cccc2OC)n1 [Example 288.0] the EC50 was 0.0011 µM.
In the case of COc1cnc([C@@H](OC)[C@H](C)S(=O)(=O)Nc2nnc(-c3cncc(C)c3)n2-c2c(OC)cccc2OC)cn1 (single isomer, unassigned) [Example 310.0], the EC50 is reported as 0.00066 µM.
COc1cnc([C@@H](C)[C@H](C)S(=O)(=O)Nc2nnc(-c3cccc(OC)n3)n2-c2c(F)cccc2F)cn1 [Example 787.0, (2S,3R)-N-(4-(2,6-difluorophenyl)-5-(6-methoxy-2-pyridinyl)-4H-1,2,4-triazol-3-yl)-3-(5-methoxy-2-pyrazinyl)-2-butanesulfonamide] showed an EC50 of 0.00053 µM.
COc1cccc(-c2nnc(NS(=O)(=O)C[C@H](O)c3ccc(F)cn3)n2-c2c(OC)cccc2OC)n1 (mixture of isomers) [Example 315.0, (2R)-N-(4-(2,6-dimethoxyphenyl)-5-(6-methoxy-2-pyridinyl)-4H-1,2,4-triazol-3-yl)-2-(5-fluoro-2-pyridinyl)-2-hydroxyethanesulfonamide and (2S)-N-(4-(2,6-dimethoxyphenyl)-5-(6-methoxy-2-pyridinyl)-4H-1,2,4-triazol-3-yl)-2-(5-fluoro-2-pyridinyl)-2-hydroxyethanesulfonamide] was tested, and the EC50 was 0.00032 µM.
CC#C[C@@H](O)[C@H](C)S(=O)(=O)Nc1nnc(-c2cncc(C)c2)n1-c1c(OC)cccc1OC (racemic) [Example 764.0, (2R,3S)-N-(4-(2,6-dimethoxyphenyl)-5-(5-methyl-3-pyridinyl)-4H-1,2,4-triazol-3-yl)-3-hydroxy-4-hexyne-2-sulfonamide and (2S,3R)-N-(4-(2,6-dimethoxyphenyl)-5-(5-methyl-3-pyridinyl)-4H-1,2,4-triazol-3-yl)-3-hydroxy-4-hexyne-2-sulfonamide] gave an EC50 of 0.027 µM.

Same assay, conditions: read-out: Activity hAPJ SPA EC50 IP
Molecule COc1cccc(OC)c1-n1c(NS(=O)(=O)[C@@H](C)[C@H](OC)c2ncc(C)o2)nnc1-c1cncc(C)c1 (single isomer, unassigned) [Example 632.0, (1S,2R)-N-(4-(2,6-dimethoxyphenyl)-5-(5-methylpyridin-3-yl)-4H-1,2,4-triazol-3-yl)-1-methoxy-1-(5-methyloxazol-2-yl)propane-2-sulfonamide or (1R,2S)-N-(4-(2,6-dimethoxyphenyl)-5-(5-methylpyridin-3-yl)-4H-1,2,4-triazol-3-yl)-1-methoxy-1-(5-methyloxazol-2-yl)propane-2-sulfonamide] has an EC50 of 0.21 µM.
Molecule COc1cccc(OC)c1-n1c(NS(=O)(=O)[C@@H](C)[C@@H](OC(C)C)c2ncc(C)cn2)nnc1-c1cccnc1 (stereo in doubt) [Example 625.0] has an EC50 of 0.11 µM.
Molecule COc1cccc(OC)c1-n1c(NS(=O)(=O)[C@@H]2CCCO[C@@H]2c2ncc(C)cn2)nnc1-c1cncc(C)c1 (single isomer, unassigned) [Example 644.0] has an EC50 of 0.18 µM.
For COc1cccc(OC)c1-n1c(NS(=O)(=O)[C@H](C)[C@@H](OC(C)C)c2ncc(C)cn2)nnc1-c1cccnc1 (stereo in doubt) [Example 626.0, (1S,2R)-N-(4-(2,6-dimethoxyphenyl)-5-(3-pyridinyl)-4H-1,2,4-triazol-3-yl)-1-(1-methylethoxy)-1-(5-methyl-2-pyrimidinyl)-2-propanesulfonamide, (1R,2S)-N-(4-(2,6-dimethoxyphenyl)-5-(3-pyridinyl)-4H-1,2,4-triazol-3-yl)-1-(1-methylethoxy)-1-(5-methyl-2-pyrimidinyl)-2-propanesulfonamide], the EC50 was 0.0018 µM.
With COc1cccc(-c2nnc(NS(=O)(=O)[C@@H]3CCCO[C@@H]3c3ncc(C)cn3)n2-c2c(OC)cccc2OC)n1 (single isomer, unassigned) [Example 657.0] the EC50 was 0.014 µM.
With COc1cccc(OC)c1-n1c(NS(=O)(=O)[C@@H](C)[C@H](C)c2ncc(F)c([C@@H]3COCCO3)n2)nnc1-c1cccc(OCC(O)(C(F)(F)F)C(F)(F)F)n1 (single isomer, unassigned) [Example 639.0] the EC50 was 0.16 µM.
With COc1cccc(OC)c1-n1c(NS(=O)(=O)[C@@H](C)Cc2ncc(F)cn2)nnc1-c1cncc(Cl)c1 (mixture of isomers) [Example 219.0, (2S)-N-(5-(5-chloro-3-pyridinyl)-4-(2,6-dimethoxyphenyl)-4H-1,2,4-triazol-3-yl)-1-(5-fluoro-2-pyrimidinyl)-2-propanesulfonamide and (2R)-N-(5-(5-chloro-3-pyridinyl)-4-(2,6-dimethoxyphenyl)-4H-1,2,4-triazol-3-yl)-1-(5-fluoro-2-pyrimidinyl)-2-propanesulfonamide] the EC50 was 0.0085 µM.
With COc1cccc(-c2nnc(NS(=O)(=O)C[C@@H](O)c3cn4ccccc4n3)n2-c2c(OC)cccc2OC)n1 (mixture of isomers) [Example 257.0, (S)-N-(4-(2,6-dimethoxyphenyl)-5-(6-methoxypyridin-2-yl)-4H-1,2,4-triazol-3-yl)-2-hydroxy-2-(imidazo[1,2-a]pyridin-2-yl)ethanesulfonamide and (R)-N-(4-(2,6-dimethoxyphenyl)-5-(6-methoxypyridin-2-yl)-4H-1,2,4-triazol-3-yl)-2-hydroxy-2-(imidazo[1,2-a]pyridin-2-yl)ethanesulfonamide] the EC50 was 0.00073 µM.
In the case of COc1cccc(-c2nnc(NS(=O)(=O)[C@@H]3CCCO[C@@H]3c3ncc(C)cn3)n2-c2c(OC)cccc2OC)n1 (single isomer, unassigned) [Example 656.0], the EC50 is reported as 0.013 µM.
COc1cccc(-c2nnc(NS(=O)(=O)[C@@H]3CCCO[C@@H]3c3ncc(C)cn3)n2-c2c(OC)cccc2OC)n1 (single isomer, unassigned) [Example 654.0] was tested, and the EC50 was 0.15 µM.
In the case of COc1cccc(-c2nnc(NS(=O)(=O)[C@H](C)[C@H](OC(C)C)c3cnc(C)cn3)n2-c2c(OC)cccc2OC)n1 (single isomer, unassigned) [Example 825.0, (1S,2S)-N-(4-(2,6-dimethoxyphenyl)-5-(6-methoxypyridin-2-yl)-4H-1,2,4-triazol-3-yl)-1-isopropoxy-1-(5-methylpyrazin-2-yl)propane-2-sulfonamide or (1R,2R)-N-(4-(2,6-dimethoxyphenyl)-5-(6-methoxypyridin-2-yl)-4H-1,2,4-triazol-3-yl)-1-isopropoxy-1-(5-methylpyrazin-2-yl)propane-2-sulfonamide], the EC50 is reported as 0.00015 µM.
Work on COc1cccc(-c2nnc(NS(=O)(=O)[C@H](C)[C@@H](O)c3cn4ccccc4n3)n2-c2c(OC)cccc2OC)n1 (mixture of isomers) [Example 256.0, (1S,2R)-N-(4-(2,6-dimethoxyphenyl)-5-(6-methoxypyridin-2-yl)-4H-1,2,4-triazol-3-yl)-1-hydroxy-1-(imidazo[1,2-a]pyridin-2-yl)propane-2-sulfonamide and (1R,2S)-N-(4-(2,6-dimethoxyphenyl)-5-(6-methoxypyridin-2-yl)-4H-1,2,4-triazol-3-yl)-1-hydroxy-1-(imidazo[1,2-a]pyridin-2-yl)propane-2-sulfonamide] yielded an EC50 of 0.0004 µM.
COc1cccc(-c2nnc(NS(=O)(=O)[C@H](C)[C@H](O)c3cn(C)cn3)n2-c2c(OC)cccc2OC)n1 (mixture of isomers) [Example 259.0, (1R,2R)-N-(4-(2,6-dimethoxyphenyl)-5-(6-methoxypyridin-2-yl)-4H-1,2,4-triazol-3-yl)-1-hydroxy-1-(1-methyl-1H-imidazol-4-yl)propane-2-sulfonamide and (1S,2S)-N-(4-(2,6-dimethoxyphenyl)-5-(6-methoxypyridin-2-yl)-4H-1,2,4-triazol-3-yl)-1-hydroxy-1-(1-methyl-1H-imidazol-4-yl)propane-2-sulfonamide] gave an EC50 of 0.011 µM.
